For this assay, the system named is Brachionus plicatilis (rotifers). The assay is described as follows: Cultivation assay of N. oceanica in the presence of rotifers (culture stability against predation). Format: in vivo. Particulars: rotifer concentrations between 10-50/mL. The text has this: FIGS. 3A-3B show culture stability in the presence of predation by rotifers. Provided are graphs showing (A) a culture including wild type Nannochloropsis oceanica (N. oceanica) exposed to increasing Brachionus plicatilis (rotifers) concentrations and (B) a transformed culture including N. oceanica strain 24N having a […]-322581 (Hypoxylon sp. CI-4A, sesquiterpene synthase) gene. Cultivation assays of N. oceanica in the presence of rotifers, which are common algae grazers and culture-crash inducing agents, indicate up to 50% increased survival of the sesquiterpene producing cultures over controls, indicating potential for algae crop-protection applications. Additional details follow. FIGS. 3A-3B show culture stability against predation.

Structures are written as SMILES.

Consider `C=C(C)[C@@H]1CC=C2CCC[C@@H](C)[C@]2(C)C1` [aristolochene], for which the predation resistance entry was “significantly increased predation resistance”.

The values above are taken from patent US11891640B1, “Crop protection in algae by exogenous terpene expression” (priority 2021, dated 2024).
